These results are taken from patent US20210330611A1, “THERAPY FOR NEUROLOGICAL DISEASES/DISORDERS” (priority 2020, published 2021).

Series [1] relates to fibrin-induced microglia activation. Briefly: Image-based assay of fibrin-induced microglia activation (HTS and dose response). It is filed as cell-based, rat. The following applies: for IC50 / inhibition at 10 µM: Rattus norvegicus, Microglia; for inhibition at 10 µM: read-out: Fibrin % inhibition.
The test system of series [2] is LPS-induced microglia activation. Nature of the series: Image-based assay of LPS-induced microglia activation (HTS and dose response). It is filed as cell-based, rat. The following applies: Rattus norvegicus, Microglia; for inhibition at 10 µM: read-out: LPS % inhibition.
In series [3] the test system is fibrin- and LPS-induced microglia activation. Briefly: cells. The settings on record: for inhibition at 10 µM: Rattus norvegicus. It is filed as cell-based, rat.
The nature of series [4]: in vitro. The settings on record: rat, Cell Toxicity IC50 (uM) [cFib assay].
Series [5] in a line: in vitro. The settings on record: rat.
Series [6] deals with primary rat microglia. Briefly: Cell toxicity (dead cells, size <150 μm2) in LPS assay. The settings on record: for IC50: read-out: Cell Toxicity IC50 (uM) [LPS assay].
Series [7] relates to primary rat microglia. Briefly: Cell toxicity (dead cells, size <150 μm2) in coated fibrin (cFib) assay.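 On Fibrin % cell toxicity: share of dead cells sized under 150 µm2 at 10 µM in fibrin-stimulated microglia HTS.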
[8] abbreviates: 48 h, Table 1, dose response 0.001-20 μM, triplicates, primary rat microglia, 48 h, read-out: Fibrin IC50.
The mark [9] stands for this setting: Table 3, read-out: Fibrin IC50 (uM) (Suppl. Table 7).
[10] abbreviates: dose response, fibrin-induced microglia activation, read-out: Fibrin IC50.
[11] abbreviates: fibrin-induced microglia activation, dose response, read-out: Fibrin IC50 (uM) (Suppl. Table 7).
The mark [12] stands for this setting: primary microglia HTS, fibrin stimulation, increased cell size (>800 μm^2) as marker of activation.
Setting [13] is: 48 h, Table 1, dose response 0.001-20 μM, triplicates, primary rat microglia, 48 h, read-out: LPS IC50.
Where [14] appears, read: 48 h, primary microglia HTS, LPS stimulation, increased cell size (>800 μm^2) as marker of activation.
The mark [15] stands for this setting: LPS-induced microglia activation, dose response, read-out: LPS IC50 (uM) (Suppl. Table 7).
Where [16] appears, read: Table 3, read-out: LPS IC50 (uM) (Suppl. Table 7).
The mark [17] stands for this setting: dose response, LPS-induced microglia activation, read-out: LPS IC50.
[18] abbreviates: HTS of 1907 compounds, quadrant by fibrin and LPS inhibition.
Where [19] appears, read: Microglia, Table 3, read-out: Cherry-picked Hit (Suppl. Table 7).
Setting [20] is: Microglia, HTS hit classification, read-out: Hit.
The mark [21] stands for this setting: quadrant by fibrin and LPS inhibition in HTS of 1907 compounds.
Where [22] appears, read: primary microglia HTS, LPS stimulation, decreased size (<150 μm^2) as marker of toxicity.
The mark [23] stands for this setting: primary microglia HTS, fibrin stimulation, decreased size (<150 μm^2) as marker of toxicity.
Where [24] appears, read: hit classification in microglia HTS, read-out: Cherry-picked Hit (Suppl. Table 7).

Where a name gives a salt, the structure may show the parent alone. Read-outs that look alike come from different tables or passages of the source.

Broadly, the IC50 is the concentration that inhibits the measured activity by half. On to `c1ccc2c(c1)OCC(C1=NCCN1)O2` (stereo not shown) [Idazoxan hydrochloride, reference compound], for which the “Fibrin Selectivity” value in series [1] was 5. Also, the “Fibrin Selectivity (LOG10)” value in series [1] is reported as 0.69. The IC50 in series [1] (setting [8]) worked out at 0.4 µM; in series [1] (setting [9]), 0.4 µM; in series [1] (setting [10]) it was 0.4 µM; in series [1] (setting [11]), 0.4 µM; in series [2] (setting [13]), 2 µM; in series [2] (setting [15]) it was 2 µM. In addition, the IC50 in series [2] (setting [16]) is 2 µM; in series [2] (setting [17]) it was 2 µM; in series [4] (Table 3), above 20 µM; in series [4] (cFib assay), above 20 µM; in series [5] it was above 20 µM; in series [6] (LPS assay), above 20 µM. In addition, the inhibition at 10 µM was 70% in series [1] (setting [12]), 14% in series [2] (setting [14]), above 50% in series [3] (setting [19]) and above 50% in series [3] (setting [20]). Moreover, the “Quadrant (FIG. 5b)” value is recorded as “Q3” in series [3] (setting [18]); “Q3” in series [3] (Table 1, screen at 10 μM); “Q3” in series [3] (Table 3, screen at 10 μM); “Q3” in series [3] (setting [21]). Also, the “LPS % cell toxicity” value in series [6] (setting [22]) came out at 0%. The “Fibrin % cell toxicity” value in series [7] (setting [23]) was 2%.

Regarding `COc1c(C)c2c(c(O)c1C/C=C(\C)CCC(=O)O)C(=O)OC2` [Mycophenolic acid, reference compound], the IC50 in series [1] (setting [8]), in series [1] (setting [10]), in series [1] (setting [11]), in series [2] (setting [13]), in series [2] (setting [15]) and in series [2] (setting [17]) was 1 µM in each case. Also, the IC50 in series [4] (cFib assay) and in series [5] was above 20 µM in each case. Moreover, the inhibition at 10 µM was 94% in series [1] (setting [12]), 91% in series [2] (setting [14]), above 50% in series [3] (setting [20]) and above 50% in series [3] (setting [24]). In addition, the “Quadrant (FIG. 5b)” value in series [3] (setting [18]) is recorded as “Q2”; in series [3] (Table 1, screen at 10 μM), “Q2”; in series [3] (Table 2, screen at 10 μM), “Q2”; in series [3] (setting [21]) it was “Q2”. Also, in series [3] (Table 7, fib = fibrin, LPS, tox = toxicity), the Activity entry was “fib/LPS”. Moreover, in series [6] (setting [22]), the “LPS % cell toxicity” value came to 2%. Besides, the “Fibrin % cell toxicity” value in series [7] (setting [23]) worked out at 1%.

In the case of `CCC(=O)O[C@]1(C(=O)CCl)[C@@H](C)C[C@H]2[C@@H]3CCC4=CC(=O)C=C[C@]4(C)[C@@]3(F)[C@@H](O)C[C@@]21C` [Clobetasol propionate, reference compound], the IC50 in series [1] (setting [8]), in series [1] (setting [10]), in series [1] (setting [11]), in series [2] (setting [13]), in series [2] (setting [15]) and in series [2] (setting [17]) was below 0.001 µM in each case. In addition, the IC50 in series [4] (cFib assay) and in series [5] was above 20 µM in each case. Further, the inhibition at 10 µM in series [1] (primary HTS, 10 μM, fibrin-stimulated primary microglia) is -22%; in series [1] (setting [12]) it was 108%; in series [2] (setting [14]) it was 105%; in series [2] (primary HTS, 10 μM, LPS-stimulated primary microglia), 30%; in series [3] (setting [20]), above 50%; in series [3] (setting [24]), above 50%. Besides, the “Quadrant (FIG. 5b)” value in series [3] (setting [18]) is on record as “Q2”; in series [3] (Table 1, screen at 10 μM), “Q2”; in series [3] (primary HTS, 10 μM) it was “Q4”; in series [3] (setting [21]), “Q2”. The “LPS % cell toxicity” value in series [6] (primary HTS, 10 μM, LPS assay, dead cells size <150 μm2) worked out at 2%; in series [6] (setting [22]), 3%. Besides, the “Fibrin % cell toxicity” value is 1% in series [7] (primary HTS, 10 μM, fibrin assay, dead cells size <150 μm2) and 3% in series [7] (setting [23]).

Take `COc1ccccc1N1CCN(CC(O)COc2cccc3ccccc23)CC1` (stereo not shown) [Naftopidil dihydrochloride, reference compound]: the “Fibrin Selectivity” value in series [1] is 3. The “Fibrin Selectivity (LOG10)” value in series [1] was found to be 0.45. For the same molecule, the IC50 in series [1] (setting [8]) was 7 µM; in series [1] (setting [9]), 7 µM; in series [1] (setting [10]) it was 7 µM; in series [1] (setting [11]), 7 µM; in series [2] (setting [13]), above 20 µM; in series [2] (setting [15]) it was above 20 µM. Besides, the IC50 in series [2] (setting [16]), in series [2] (setting [17]), in series [4] (Table 3), in series [4] (cFib assay), in series [5] and in series [6] (LPS assay) was above 20 µM throughout. Further, the inhibition at 10 µM in series [1] (setting [12]) is 59%; in series [2] (setting [14]) it was 32%; in series [3] (setting [19]) it was above 50%; in series [3] (setting [20]), above 50%. For the same molecule, the “Quadrant (FIG. 5b)” value in series [3] (setting [18]) is listed as “Q3”; in series [3] (Table 1, screen at 10 μM), “Q3”; in series [3] (Table 3, screen at 10 μM) it was “Q3”; in series [3] (setting [21]) it was “Q3”. Besides, the “LPS % cell toxicity” value in series [6] (setting [22]) came to 0%. In addition, in series [7] (setting [23]), the “Fibrin % cell toxicity” value is 1%.

Consider `CCOC(=O)[N-]c1cn(N2CCOCC2)n[o+]1` [Molsidomine, reference compound], for which the half-inhibitory concentration (IC50) in series [1] (setting [8]), in series [1] (setting [10]), in series [1] (setting [11]), in series [2] (setting [13]), in series [2] (setting [15]) and in series [2] (setting [17]) was above 20 µM in each case. Also, the IC50 in series [4] (cFib assay) and in series [5] was above 20 µM throughout. The inhibition at 10 µM in series [1] (setting [12]) is 103%; in series [2] (setting [14]), 124%; in series [3] (setting [20]) it was above 50%; in series [3] (setting [24]), above 50%. In addition, the “Quadrant (FIG. 5b)” value in series [3] (setting [18]) is reported as “Q2”; in series [3] (Table 1, screen at 10 μM), “Q2”; in series [3] (setting [21]), “Q2”. In series [6] (setting [22]), the “LPS % cell toxicity” value came to 5%. In series [7] (setting [23]), the “Fibrin % cell toxicity” value amounted to 2%.

For `Cc1cccc(C)c1N=C1NCCCS1` [Xylazine hydrochloride, reference compound], the “Fibrin Selectivity” value in series [1] was 5. In addition, in series [1], the “Fibrin Selectivity (LOG10)” value is on record as 0.72. The IC50 stood at 2 µM in series [1] (setting [8]); 2 µM in series [1] (setting [9]); 2 µM in series [1] (setting [10]); 2 µM in series [1] (setting [11]); 8 µM in series [2] (setting [13]); 8 µM in series [2] (setting [15]). The IC50 in series [2] (setting [16]) is 8 µM; in series [2] (setting [17]) it was 8 µM; in series [4] (Table 3), above 20 µM; in series [4] (cFib assay), above 20 µM; in series [5], above 20 µM; in series [6] (LPS assay), above 20 µM. In addition, the inhibition at 10 µM was 102% in series [1] (setting [12]), 72% in series [2] (setting [14]), above 50% in series [3] (setting [19]) and above 50% in series [3] (setting [20]). For the same molecule, the “Quadrant (FIG. 5b)” value is recorded as “Q2” in series [3] (setting [18]); “Q2” in series [3] (Table 1, screen at 10 μM); “Q2” in series [3] (Table 3, screen at 10 μM); “Q2” in series [3] (setting [21]). For the same molecule, in series [6] (setting [22]), the “LPS % cell toxicity” value came to 2%. In addition, in series [7] (setting [23]), the “Fibrin % cell toxicity” value was found to be 1%.

For `CN(C)[C@@H]1C(O)=C(C(N)=O)C(=O)[C@@]2(O)C(O)=C3C(=O)c4c(O)ccc(Cl)c4[C@@H](O)[C@H]3C[C@@H]12` [Demeclocycline hydrochloride, reference compound], the “Fibrin Selectivity” value in series [1] was determined as 2. In series [1], the “Fibrin Selectivity (LOG10)” value came out at 0.38. Also, the IC50 in series [1] (setting [8]) amounted to 6 µM; in series [1] (setting [9]) it was 6 µM; in series [1] (setting [10]) it was 6 µM; in series [1] (setting [11]) it was 6 µM; in series [2] (setting [13]), 15 µM; in series [2] (setting [15]), 15 µM. The IC50 in series [2] (setting [16]) was 15 µM; in series [2] (setting [17]) it was 15 µM; in series [4] (Table 3) it was above 20 µM; in series [4] (cFib assay), above 20 µM; in series [5] it was above 20 µM; in series [6] (LPS assay) it was above 20 µM. The inhibition at 10 µM in series [1] (setting [12]) was 75%; in series [2] (setting [14]), 31%; in series [3] (setting [19]) it was above 50%; in series [3] (setting [20]), above 50%. Also, the “Quadrant (FIG. 5b)” value in series [3] (setting [18]) is listed as “Q3”; in series [3] (Table 1, screen at 10 μM), “Q3”; in series [3] (Table 3, screen at 10 μM), “Q3”; in series [3] (setting [21]), “Q3”. Besides, the “LPS % cell toxicity” value in series [6] (setting [22]) amounted to 1%. In addition, the “Fibrin % cell toxicity” value in series [7] (setting [23]) came out at 1%.
